Results from the supplement of paper PMC6411743.

Compound: Nc1ncnc2c1ncn2[C@@H]1O[C@H](COP(=O)(O)OP(=O)(O)OP(=O)(O)O)[C@@H](O)[C@H]1O [adenosine triphosphate]
Assay: pEC50 of ATP-induced change in protein thermal stability (2D-TPP)
In short: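 Each of three independent experiments used Jurkat crude lysate given five concentrations including vehicle (10 min, room temperature), followed by 3 min at one of 12 temperatures from 42 to 63.9 °C and NP40 with benzonase (60 min, 4 °C). TMT LC-MS/MS quantified soluble protein after ultracentrifugation, expressed as fold changes against vehicle at each temperature with median normalisation. For pEC50, dose-response curves were fitted per replicate over adjacent temperature pairs, and hits were called through permutation-based false discovery rate control.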
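Note: lysate dosed with Na-ATP at 0 0.005 0.05 0.5 and 2 mM.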

Sequence of UniProt Q8N0X4 (Q8N0X4 whole entry): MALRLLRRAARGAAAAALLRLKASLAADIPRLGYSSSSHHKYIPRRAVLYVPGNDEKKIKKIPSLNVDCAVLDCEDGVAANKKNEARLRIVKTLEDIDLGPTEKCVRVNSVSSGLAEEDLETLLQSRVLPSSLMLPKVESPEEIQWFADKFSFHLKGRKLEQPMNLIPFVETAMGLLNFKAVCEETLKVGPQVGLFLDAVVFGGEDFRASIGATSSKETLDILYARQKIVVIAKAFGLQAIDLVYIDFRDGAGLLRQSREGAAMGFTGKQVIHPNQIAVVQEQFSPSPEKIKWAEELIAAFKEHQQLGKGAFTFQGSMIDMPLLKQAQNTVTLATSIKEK
Sequence of UniProt Q8WVK2 (Q8WVK2 whole entry): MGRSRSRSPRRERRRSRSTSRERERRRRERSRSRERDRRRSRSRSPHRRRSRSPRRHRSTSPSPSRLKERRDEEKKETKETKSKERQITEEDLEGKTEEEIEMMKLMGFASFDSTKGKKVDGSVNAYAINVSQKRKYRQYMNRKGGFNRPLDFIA
Sequence of UniProt P35579 (P35579 whole entry): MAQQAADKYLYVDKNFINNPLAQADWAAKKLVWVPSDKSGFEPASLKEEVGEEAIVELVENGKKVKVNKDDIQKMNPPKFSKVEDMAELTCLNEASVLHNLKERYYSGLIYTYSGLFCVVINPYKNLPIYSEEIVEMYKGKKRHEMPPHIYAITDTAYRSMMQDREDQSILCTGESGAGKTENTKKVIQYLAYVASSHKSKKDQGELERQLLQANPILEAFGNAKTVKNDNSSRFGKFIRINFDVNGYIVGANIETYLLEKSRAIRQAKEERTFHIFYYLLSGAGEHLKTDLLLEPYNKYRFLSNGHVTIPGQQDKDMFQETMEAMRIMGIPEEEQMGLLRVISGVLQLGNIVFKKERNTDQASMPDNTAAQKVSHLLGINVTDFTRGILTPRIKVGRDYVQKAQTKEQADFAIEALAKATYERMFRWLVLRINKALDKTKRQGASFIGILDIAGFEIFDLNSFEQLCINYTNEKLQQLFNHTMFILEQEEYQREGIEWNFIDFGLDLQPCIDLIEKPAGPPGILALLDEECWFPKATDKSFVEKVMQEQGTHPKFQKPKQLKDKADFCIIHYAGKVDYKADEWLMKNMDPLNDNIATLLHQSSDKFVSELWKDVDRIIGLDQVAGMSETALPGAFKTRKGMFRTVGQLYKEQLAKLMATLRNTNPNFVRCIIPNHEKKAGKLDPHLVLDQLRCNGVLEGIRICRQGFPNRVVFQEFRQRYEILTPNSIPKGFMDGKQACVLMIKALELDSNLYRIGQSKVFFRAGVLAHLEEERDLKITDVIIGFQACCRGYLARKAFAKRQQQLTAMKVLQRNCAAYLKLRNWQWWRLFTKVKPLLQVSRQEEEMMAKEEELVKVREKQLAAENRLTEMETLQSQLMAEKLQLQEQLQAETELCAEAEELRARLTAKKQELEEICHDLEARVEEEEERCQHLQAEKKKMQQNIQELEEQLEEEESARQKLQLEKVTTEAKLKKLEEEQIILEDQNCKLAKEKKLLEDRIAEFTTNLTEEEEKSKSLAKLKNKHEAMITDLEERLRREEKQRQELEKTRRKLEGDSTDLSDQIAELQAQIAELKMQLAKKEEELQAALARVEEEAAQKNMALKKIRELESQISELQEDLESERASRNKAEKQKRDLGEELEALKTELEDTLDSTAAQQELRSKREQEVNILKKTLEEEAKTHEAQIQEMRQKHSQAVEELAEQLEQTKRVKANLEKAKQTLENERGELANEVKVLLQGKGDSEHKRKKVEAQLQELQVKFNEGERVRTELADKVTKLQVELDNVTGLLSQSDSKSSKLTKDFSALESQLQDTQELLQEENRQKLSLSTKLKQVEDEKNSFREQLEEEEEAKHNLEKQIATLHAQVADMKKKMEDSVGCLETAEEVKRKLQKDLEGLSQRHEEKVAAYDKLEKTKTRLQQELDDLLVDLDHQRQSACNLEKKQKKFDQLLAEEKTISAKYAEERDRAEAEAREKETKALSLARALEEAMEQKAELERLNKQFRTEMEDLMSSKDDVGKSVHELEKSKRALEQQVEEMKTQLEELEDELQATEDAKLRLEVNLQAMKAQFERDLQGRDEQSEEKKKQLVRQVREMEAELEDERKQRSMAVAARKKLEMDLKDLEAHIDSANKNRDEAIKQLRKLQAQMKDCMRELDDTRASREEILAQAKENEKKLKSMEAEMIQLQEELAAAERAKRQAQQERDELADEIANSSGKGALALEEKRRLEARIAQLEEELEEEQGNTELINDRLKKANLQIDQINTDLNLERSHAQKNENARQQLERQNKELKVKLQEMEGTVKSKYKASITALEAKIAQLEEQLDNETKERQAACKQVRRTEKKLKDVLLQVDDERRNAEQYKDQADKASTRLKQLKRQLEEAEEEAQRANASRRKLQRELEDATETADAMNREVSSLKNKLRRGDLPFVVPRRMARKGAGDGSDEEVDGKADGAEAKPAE
Sequence of UniProt Q9Y223 (Q9Y223 whole entry): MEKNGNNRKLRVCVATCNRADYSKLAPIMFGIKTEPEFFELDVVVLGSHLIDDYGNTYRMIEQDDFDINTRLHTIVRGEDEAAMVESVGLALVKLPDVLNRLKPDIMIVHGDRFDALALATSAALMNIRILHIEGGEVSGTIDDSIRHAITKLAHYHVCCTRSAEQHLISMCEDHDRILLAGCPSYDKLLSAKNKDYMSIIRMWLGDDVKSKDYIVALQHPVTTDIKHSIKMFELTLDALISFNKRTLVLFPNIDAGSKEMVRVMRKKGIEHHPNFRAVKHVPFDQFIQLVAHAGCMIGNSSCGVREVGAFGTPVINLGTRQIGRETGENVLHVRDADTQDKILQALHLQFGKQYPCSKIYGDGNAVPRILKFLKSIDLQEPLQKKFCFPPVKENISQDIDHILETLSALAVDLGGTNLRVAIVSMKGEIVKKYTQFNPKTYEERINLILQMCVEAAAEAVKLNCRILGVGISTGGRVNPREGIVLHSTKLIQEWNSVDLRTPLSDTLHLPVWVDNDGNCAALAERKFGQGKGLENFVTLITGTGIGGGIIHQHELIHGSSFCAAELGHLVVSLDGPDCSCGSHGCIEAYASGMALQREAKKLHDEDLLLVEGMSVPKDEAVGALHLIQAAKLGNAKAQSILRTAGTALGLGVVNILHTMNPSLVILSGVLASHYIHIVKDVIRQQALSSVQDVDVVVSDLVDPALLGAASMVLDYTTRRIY
Sequence of UniProt Q8IZ21 (Q8IZ21 whole entry): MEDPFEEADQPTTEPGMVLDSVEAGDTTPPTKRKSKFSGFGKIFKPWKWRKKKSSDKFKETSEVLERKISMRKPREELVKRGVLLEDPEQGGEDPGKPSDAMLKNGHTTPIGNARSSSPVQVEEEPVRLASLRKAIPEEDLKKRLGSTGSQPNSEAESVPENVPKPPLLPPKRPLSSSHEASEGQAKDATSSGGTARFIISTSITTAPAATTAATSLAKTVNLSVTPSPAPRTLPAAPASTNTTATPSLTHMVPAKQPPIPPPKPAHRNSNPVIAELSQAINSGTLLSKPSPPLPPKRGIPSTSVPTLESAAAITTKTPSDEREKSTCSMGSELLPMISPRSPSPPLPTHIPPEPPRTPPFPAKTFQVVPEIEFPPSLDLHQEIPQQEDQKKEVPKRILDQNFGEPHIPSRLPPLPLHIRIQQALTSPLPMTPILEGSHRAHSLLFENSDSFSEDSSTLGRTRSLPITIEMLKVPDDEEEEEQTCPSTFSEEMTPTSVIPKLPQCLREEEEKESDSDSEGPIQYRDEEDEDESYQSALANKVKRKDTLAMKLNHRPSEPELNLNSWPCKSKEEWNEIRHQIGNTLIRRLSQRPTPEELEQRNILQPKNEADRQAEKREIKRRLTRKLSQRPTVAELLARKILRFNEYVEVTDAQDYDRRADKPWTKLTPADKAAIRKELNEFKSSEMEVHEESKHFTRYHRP
Sequence of UniProt Q9NQW7 (Q9NQW7 whole entry): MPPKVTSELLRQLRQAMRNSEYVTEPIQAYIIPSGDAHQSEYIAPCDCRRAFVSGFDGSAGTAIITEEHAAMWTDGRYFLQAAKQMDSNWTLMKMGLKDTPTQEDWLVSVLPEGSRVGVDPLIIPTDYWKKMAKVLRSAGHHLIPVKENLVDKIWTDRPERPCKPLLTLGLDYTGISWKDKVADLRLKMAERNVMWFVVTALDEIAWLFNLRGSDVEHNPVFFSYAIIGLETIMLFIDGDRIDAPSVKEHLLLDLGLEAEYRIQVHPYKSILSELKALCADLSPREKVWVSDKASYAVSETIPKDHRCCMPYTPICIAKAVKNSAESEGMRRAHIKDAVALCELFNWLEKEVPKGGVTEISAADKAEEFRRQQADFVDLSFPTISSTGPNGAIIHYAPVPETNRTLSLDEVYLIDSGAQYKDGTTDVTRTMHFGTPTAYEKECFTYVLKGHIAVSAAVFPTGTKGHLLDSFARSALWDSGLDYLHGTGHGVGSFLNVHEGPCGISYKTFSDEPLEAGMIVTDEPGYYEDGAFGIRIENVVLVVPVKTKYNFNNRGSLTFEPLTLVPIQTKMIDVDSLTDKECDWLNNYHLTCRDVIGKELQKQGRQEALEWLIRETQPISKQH
Sequence of UniProt P18669 (P18669 whole entry, looked up): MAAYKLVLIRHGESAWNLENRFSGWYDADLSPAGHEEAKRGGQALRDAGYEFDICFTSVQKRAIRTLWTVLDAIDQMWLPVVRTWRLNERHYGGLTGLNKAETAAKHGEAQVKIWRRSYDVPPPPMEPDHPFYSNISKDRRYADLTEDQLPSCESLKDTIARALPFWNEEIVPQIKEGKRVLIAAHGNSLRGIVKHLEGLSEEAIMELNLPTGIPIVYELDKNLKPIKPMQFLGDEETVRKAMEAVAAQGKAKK

Compared with “RPS10 (effect direction: destabilized) (UniProt P46783)”, “ADK (effect direction: stabilized) (UniProt P55263)” is higher in pEC50: < 2.7 for the first, 3.82 for the second.

Compared with “PGAM1 (effect direction: destabilized) (UniProt P18669)”, “CDK9 (effect direction: stabilized) (UniProt P50750)” is higher in pEC50: < 2.7 for the first, > 5.3 for the second.

“RABGEF1 (effect direction: stabilized) (UniProt Q9UJ41)” and “CTNNBL1 (effect direction: stabilized) (UniProt Q8WYA6)” are the same in pEC50: 3.08 for the first, 3.08 for the second.

Going from “SMARCAD1 (effect direction: stabilized) (UniProt Q9H4L7)” to “PM20D2 (effect direction: stabilized) (UniProt Q8IYS1)”, the pEC50 falls from 3.94 to 2.86.

“YRDC (effect direction: stabilized) (UniProt Q86U90)” and “XYLB (effect direction: stabilized) (UniProt O75191)” are within 0.2 log units of each other in pEC50: 2.91 for the first, 3.04 for the second.

First: DDHD2 (effect direction: stabilized) (UniProt O94830)
Second: MYBBP1A (effect direction: destabilized) (UniProt Q9BQG0)
The pEC50 of the first is lower: < 2.7 for the first, 2.77 for the second.

Going from “PRKAG1 (effect direction: stabilized) (UniProt P54619)” to “ATG7 (effect direction: stabilized) (UniProt O95352)”, the pEC50 rises from 3.27 to 3.74.

Compared with “LUC7L2 (effect direction: stabilized) (UniProt Q9Y383)”, “NT5C2 (effect direction: stabilized) (UniProt P49902)” is lower in pEC50: 3.22 for the first, 2.82 for the second.

“ILF3 (effect direction: stabilized) (UniProt Q12906)” and “PITRM1 (effect direction: stabilized) (UniProt Q5JRX3)” are within 0.2 log units of each other in pEC50: 3.13 for the first, 3.09 for the second.

First: HNRNPU (effect direction: stabilized) (UniProt Q00839)
Second: UniProt P28482 (effect direction: stabilized)
The pEC50 of the first is lower: 2.9 for the first, 3.16 for the second.

Compared with “MCM3 (effect direction: stabilized) (UniProt P25205)”, “UniProt Q7Z2Z2 (effect direction: stabilized)” is lower in pEC50: 3.53 for the first, 2.78 for the second.

Compared with “ARPC3 (effect direction: stabilized) (UniProt O15145)”, “ENO3 (effect direction: destabilized) (UniProt P13929)” is lower in pEC50: 2.88 for the first, < 2.7 for the second.

“CCDC12 (effect direction: destabilized) (UniProt Q8WUD4)” and “IKBKG (effect direction: stabilized) (UniProt Q9Y6K9)” are within 0.2 log units of each other in pEC50: 3.49 for the first, 3.42 for the second.

First: LARP7 (effect direction: stabilized) (UniProt Q4G0J3)
Second: MCM5 (effect direction: stabilized) (UniProt P33992)
The pEC50 of the first is lower: 3.03 for the first, 3.59 for the second.

Compared with “SNRNP27 (effect direction: stabilized) (UniProt Q8WVK2)”, “UniProt P61254 (effect direction: destabilized)” is lower in pEC50: 3.64 for the first, < 2.7 for the second.

Going from “UniProt Q5VZE5 (effect direction: stabilized)” to “UniProt P42285 (effect direction: stabilized)”, the pEC50 falls from 2.92 to < 2.7.

Going from “CHKA (effect direction: stabilized) (UniProt P35790)” to “DDX11L8 (effect direction: stabilized) (UniProt A8MPP1)”, the pEC50 falls from 3.49 to 3.15.

Compared with “TBCB (effect direction: stabilized) (UniProt Q99426)”, “PSMD13 (effect direction: stabilized) (UniProt Q9UNM6)” is higher in pEC50: < 2.7 for the first, 4.14 for the second.

First: RPSA (effect direction: stabilized) (UniProt P08865)
Second: C12orf29 (effect direction: destabilized) (UniProt Q8N999)
The pEC50 of the first is lower: < 2.7 for the first, 3.11 for the second.

“ATAD2B (effect direction: destabilized) (UniProt Q9ULI0)” and “MARS2 (effect direction: stabilized) (UniProt Q96GW9)” are within 0.2 log units of each other in pEC50: 3.06 for the first, 3.24 for the second.

Compared with “POLR2C (effect direction: destabilized) (UniProt P19387)”, “NAP1L1 (effect direction: stabilized) (UniProt P55209)” is lower in pEC50: 3.72 for the first, < 2.7 for the second.

First: EFHD2 (effect direction: destabilized) (UniProt Q96C19)
Sequence of UniProt Q96C19 (Q96C19 whole entry): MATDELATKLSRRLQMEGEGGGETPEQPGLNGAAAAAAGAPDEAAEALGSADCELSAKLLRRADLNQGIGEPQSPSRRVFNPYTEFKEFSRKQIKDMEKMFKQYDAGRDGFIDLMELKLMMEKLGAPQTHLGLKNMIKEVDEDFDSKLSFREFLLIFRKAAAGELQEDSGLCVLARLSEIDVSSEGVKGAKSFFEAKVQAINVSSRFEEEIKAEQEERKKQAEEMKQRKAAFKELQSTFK
Second: PARN (effect direction: stabilized) (UniProt O95453)
The pEC50 of the first is higher: 3.08 for the first, < 2.7 for the second.

First: PRKRIP1 (effect direction: destabilized) (UniProt Q9H875)
Second: PCYT2 (effect direction: stabilized) (UniProt Q99447)
The pEC50 of the first is higher: 2.81 for the first, < 2.7 for the second.

“GNE (effect direction: stabilized) (UniProt Q9Y223)” and “UniProt P62241 (effect direction: destabilized)” are within 0.2 log units of each other in pEC50: 3.16 for the first, 3.14 for the second.

“UniProt O14920 (effect direction: stabilized)” and “CLN5 (effect direction: stabilized) (UniProt O75503)” are within 0.2 log units of each other in pEC50: 3.5 for the first, 3.38 for the second.

Compared with “CDK5 (effect direction: stabilized) (UniProt Q00535)”, “AARS (effect direction: stabilized) (UniProt P49588)” is higher in pEC50: 3.46 for the first, 4.2 for the second.

Going from “RPL10A (effect direction: destabilized) (UniProt P62906)” to “SMC1A (effect direction: stabilized) (UniProt Q14683)”, the pEC50 rises from < 2.7 to 3.41.

“DNMT1 (effect direction: destabilized) (UniProt P26358)” and “UniProt Q96G23 (effect direction: stabilized)” are within 0.2 log units of each other in pEC50: 2.98 for the first, 3.02 for the second.

Going from “DDX19A (effect direction: stabilized) (UniProt Q9NUU7)” to “MRPL19 (effect direction: destabilized) (UniProt P49406)”, the pEC50 rises from 3.75 to 4.49.

First: NKTR (effect direction: stabilized) (UniProt P30414)
Second: SF3B3 (effect direction: stabilized) (UniProt Q15393)
The pEC50 of the first is higher: 3.22 for the first, < 2.7 for the second.

First: SWAP70 (effect direction: stabilized) (UniProt Q9UH65)
Second: ACSL1 (effect direction: stabilized) (UniProt P33121)
The pEC50 of the first is lower: < 2.7 for the first, 3.63 for the second.

Going from “FUCA1 (effect direction: destabilized) (UniProt P04066)” to “PPA1 (effect direction: destabilized) (UniProt Q15181)”, the pEC50 falls from > 5.3 to 2.85.

Going from “XPNPEP1 (effect direction: stabilized) (UniProt Q9NQW7)” to “ACTR1B (effect direction: stabilized) (UniProt P42025)”, the pEC50 rises from 2.77 to 4.23.

“HEATR3 (effect direction: stabilized) (UniProt Q7Z4Q2)” and “NOP2 (effect direction: destabilized) (UniProt P46087)” are within 0.2 log units of each other in pEC50: 2.83 for the first, 2.94 for the second.

First: FKBP5 (effect direction: stabilized) (UniProt Q13451)
Second: YME1L1 (effect direction: stabilized) (UniProt Q96TA2)
The pEC50 of the first is lower: < 2.7 for the first, 3.54 for the second.

Compared with “PSMC3 (effect direction: stabilized) (UniProt P17980)”, “ACLY (effect direction: stabilized) (UniProt P53396)” is lower in pEC50: 4.02 for the first, 3.16 for the second.

Compared with “RAD54L2 (effect direction: stabilized) (UniProt Q9Y4B4)”, “MYH9 (effect direction: stabilized) (UniProt P35579)” is higher in pEC50: 3.3 for the first, 3.6 for the second.

Compared with “KATNA1 (effect direction: stabilized) (UniProt O75449)”, “ARID1A (effect direction: stabilized) (UniProt O14497)” is lower in pEC50: 3.42 for the first, < 2.7 for the second.

First: FKBP8 (effect direction: stabilized) (UniProt Q14318)
Second: USP14 (effect direction: stabilized) (UniProt P54578)
The pEC50 of the first is higher: 3.36 for the first, < 2.7 for the second.

Going from “VTN (effect direction: destabilized) (UniProt P04004)” to “UniProt P62269 (effect direction: destabilized)”, the pEC50 falls from 3.24 to < 2.7.

Compared with “PHACTR4 (effect direction: stabilized) (UniProt Q8IZ21)”, “GTF3A (effect direction: stabilized) (UniProt Q92664)” is lower in pEC50: 4.03 for the first, 3.03 for the second.

Going from “UniProt P62495 (effect direction: stabilized)” to “ANXA5 (effect direction: stabilized) (UniProt P08758)”, the pEC50 rises from < 2.7 to 2.79.

“CLYBL (effect direction: destabilized) (UniProt Q8N0X4)” and “HNRNPR (effect direction: stabilized) (UniProt O43390)” are within 0.2 log units of each other in pEC50: 2.92 for the first, 3.04 for the second.

Going from “SRPK1 (effect direction: stabilized) (UniProt Q96SB4)” to “EEF1G (effect direction: stabilized) (UniProt P26641)”, the pEC50 falls from 3.64 to < 2.7.

Compared with “UniProt Q14004 (effect direction: stabilized)”, “UniProt P62318 (effect direction: destabilized)” is lower in pEC50: 3.59 for the first, < 2.7 for the second.

Compared with “UniProt Q6ZUM4 (effect direction: stabilized)”, “PMS2 (effect direction: stabilized) (UniProt P54278)” is lower in pEC50: 3.74 for the first, 3.21 for the second.
